9 compounds from patent US20020192159A1, “Single-patient drug trials used with accumulated database: flowchart” (priority 2001, published 2002) can be followed below.

The subject of data set [1] is patient with perennial allergic rhinitis. The note with it: for incidence of sedation: day 4 of treatment.
For the next data set, the system named is individual patient. In words: SPAS abuse potential test (liking score vs placebo or comparator). The settings on record: for liking score difference vs placebo: person. As for the experimental part:
Single-patient drug kits can be designed to test for “liking scores,” “abuse potential scores,” and patient's desire to re-use the test article compared to placebo and positive controls.
In this example, the abuse potential of the narcotic analgesic codeine is tested. A single-patient trial is conducted in a patient for whom treatment with codeine is deemed appropriate. The patient receives a SPAS test kit containing codeine, an alternative drug, e.g., ibuprofen and a questionnaire designed to elicit the liking score, desirability to re-use test article and abuse potential of the patient to codeine.
In another example, in follow-up to the test above, the clinician compares diazepam to secobarbital in the same patient.

Data set [2] deals with previously tested similar patients. In words: follow-up of previously tested similar patients in the database (addiction / smoking).
Data set [3] concerns hyperactive child (Minimum Brain Dysfunction or Attention Deficit Disorder). Description: SPAS single-patient drug trial of methylphenidate vs placebo. On the procedure: The usefulness of methylphenidate (Ritalin) treatment in a hyperactive child (Minimum Brain Dysfunction or Attention Deficit Disorder) is evaluated.
Technology: Consists of instructions, “calendar” packaging for drug and a substantially identical looking placebo to assure appropriate dosing and monitoring of compliance, questionnaires and assessment forms and instructions. […] Results are mailed to the physician and, in this case, parent for use in evaluating the usefulness of the therapy. The physician and parent are contacted, e.g., every three months to provide data on therapies utilized, and perceived outcome, until the condition is resolved.
The questionnaire portion of the kit includes an initial consent form for the parent or guardian to complete. The questionnaire also provides background information on the study and possible side effects associated with the medication. Also included therein is a form for providing relevant patient and family histories. More importantly, the questionnaire, in this case includes a portion for the weekly input by parents/guardians and school observers for answers to questions relating to the drug evaluation. Physician questionnaires are similarly arranged.
The trial calls for 40 mg to be given daily as 10 mg four times daily compared to identical appearing placebo which is also given four times daily. After completing the trial and questionnaire, the data is processed to statistically determine the results.

Data set [4] deals with patients with the same disorder (hyperactive child). Description: pooled SPAS data and follow-up of patients continued on methylphenidate 40 mg daily. Type of data set: in vivo, human. On the procedure: All results obtained from the data are compared against the results provided by data amassed from a pool of about 200 patients with the same disorder. If, of these 200 patients, 55 experience encouraging results (along with the current patient) they are continued on 40 mg daily treatment. If, of these 55 patients, 5 are lost to follow-up, with 50 remaining for prospective evaluation, the physician continues the patient on 40 mg methylphenidate daily based solely on the isolated SPAS single-patient drug trial results. The physician then reviews the pooled data on the 50 patients. This will be done to understand under what circumstances this individual patient is likely to continue to show benefit from methylphenidate 40 mg treatment, and what conditions lead to treatment failure.
If for example, the pool of 50 patients who continue treatment have the following scores following the original SPAS testing:
All 50 patients are followed up by telephone interview monthly for nine months or more, and outcomes are prospectively documented.
The continuing validation process using pooled data, which is a subject of this invention, provides additional data essential to formulating a rational therapeutic decision.

A further data set relates to hypertensive person. Description: double-blind single-patient trial of verapamil as therapeutic alternative to propranolol. Type of data set: in vivo, human. The note with it: for mean systolic blood pressure increases: end of six week trial, verapamil SR 240 mg vs propranolol SR 180 mg once daily, statistically insignificant; for mean systolic blood pressure increases / mean diastolic pressure: little difference between drugs; for mean diastolic pressure: throughout six week trial. On the procedure: In this example, the validity of using a sustained release formulation of verapamil 240 mg once daily as a therapeutic alternative to sustained release propranolol 180 mg once daily in a hypertensive person is shown. The trial during which the two medications are randomly administered in a double-blind manner is six weeks. The questionnaire used is set up in a manner similar to that described in above examples except that the questions elicit information related to the disease of hypertension. Blood pressure and adverse event reports are taken daily by the patient. […] Sleepiness is reported at equal rates for both drugs. All values are statistically insignificant and the therapeutic alternative selection is objectively validated.

The mark [5] stands for this setting: patients with statistically altered sleep patterns, within two months.
Where [6] appears, read: pool of 50 patients who continue treatment.

Each structure is given as a SMILES string. Counter-ions that a name gives are not always drawn.

Take `CCOC(=O)N1CCC(=C2c3ccc(Cl)cc3CCc3cccnc32)CC1` [CL, loratidine]: in data set [1] (person), the incidence of sedation is recorded as 2 on a 3 point scale.
`CN(C)CCC(c1ccc(Cl)cc1)c1ccccn1` (centres unmarked) [CM, chlorpheniramine maleate]: the “patient's symptoms at reevaluation” value in data set [1] (6 and 12 months post-initiation of CM treatment) was “well maintained”. Moreover, in data set [1] (database patients placed on CM after single-patient trials), the “similar patients well maintained during a year long follow-up” value was 37 of the 40. The incidence of sedation in data set [1] (person) was 2 on a 3 point scale. In addition, the “control of most bothersome symptom, sneezing” value in data set [1] (person, perennial allergic rhinitis) is “similarly and effectively controlled”.
On to `COc1ccc2c3c1O[C@H]1[C@@H](O)C=C[C@H]4[C@@H](C2)N(C)CC[C@@]341` [codeine], for which the liking score with individual patient (patient on codeine) is on record as 3 out of 5. For the same compound, the “liking score difference vs placebo” value with individual patient (statistically significant (Bayesian feedback)) is given as 2 units. Also, the “patients who became addicted” value in data set [2] (Caucasian female patients 30 to 40 years with similar 0 unit difference) was 10 out of 1250; in data set [2] (black male patients 40 to 50 years old with similar 2-unit difference, treated with codeine) it was 25 out of 600; in data set [2] (similar patients with 2 unit differences, within three months), “Twenty”; in data set [2] (similar patients with 3 unit differences), 50 out of 110.
On to `CN1C(=O)CN=C(c2ccccc2)c2cc(Cl)ccc21` [diazepam], for which the liking score with individual patient (patient on diazepam) is 4 out of 5. In addition, the “liking score difference vs placebo” value with individual patient (not statistically significant) worked out at 0 units. Also, the “level of addiction on follow-up of similar patients” value in data set [2] is given as “comparatively low level of addiction”.
With `COC(=O)C(c1ccccc1)C1CCCCN1` (centres unmarked) [methylphenidate], the “patient's attention span” value in data set [3] (40 mg daily as 10 mg four times daily vs placebo, methylphenidate periods) is “improved substantially”. Also, in data set [3] (40 mg daily, methylphenidate periods), the sleep patterns entry is “statistically altered”. Moreover, in data set [3] (methylphenidate dosing periods), the teacher comments entry is reported as “corroborate improved attention span”. Also, in data set [4] (monthly telephone interview for nine months or more, 40 mg daily), the “follow-up outcome, patients with no statistically altered sleep disturbances” value is “well maintained”. Further, the “patients who experience encouraging results” value in data set [4] (of a pool of about 200 patients with the same disorder) stood at 55. In addition, in data set [4] (setting [5]), the “patients experiencing grand mal seizures” value is “two” and the “patients showing severe episodes of bizarre behaviors” value worked out at 90%. In addition, in data set [4] (setting [6]), the “Sleep Patterns: have been statistically altered” value is recorded as 50% have been statistically altered, the “Sleep Patterns: have not been statistically altered” value is reported as 50% have not been statistically altered, the “Teacher Comments: corroborate improved attention span” value is reported as 80% corroborate improved attention span and the “Teacher Comments: do not corroborate improved attention span” value is on record as 20% do not corroborate improved attention span. The “Attention Span: have substantial improvement” value in data set [4] (pool of 50 patients who continue treatment, scores following original SPAS testing) is given as 100% have substantial improvement. Further, the “follow-up outcome, patients with statistically altered sleep patterns” value in data set [4] (within two months, 40 mg daily) was “loss of symptom control”.
Consider `CN1CCCC1c1cccnc1` (centres unmarked) [nicotine], for which the liking score with individual patient (on average, patient receiving nicotine) was 4 out of 5. In addition, in the data set on individual patient (statistically significant), the “liking score difference vs placebo” value was 3 units. Besides, the “patients who are smokers” value in data set [2] (female Caucasian patients 15 to 17 years old with similar 3-unit difference) is 820 out of 975.
Turning to `CC(C)NCC(O)COc1cccc2ccccc12` (centres unmarked) [propranolol], in the data set with hypertensive person, the “mean systolic blood pressure increases” value came to 3% and the mean diastolic pressure entry is recorded as “essentially stable”. The sleepiness reported entry with hypertensive person (human, in vivo) was “equal rates”.
For `C=CCC1(C(C)CCC)C(=O)NC(=O)NC1=O` (centres unmarked) [secobarbital], the “difference in liking scores, diazepam vs secobarbital” value with individual patient (same person, statistically significant difference) is “greater addiction potential”. For the same compound, the “level of addiction on follow-up of similar patients” value in data set [2] is reported as “high level of addiction”.
Take `COc1ccc(CCN(C)CCCC(C#N)(c2ccc(OC)c(OC)c2)C(C)C)cc1OC` (centres unmarked) [verapamil]: in the data set with hypertensive person, the “mean systolic blood pressure increases” value came to 3% and the mean diastolic pressure entry is “essentially stable”. The sleepiness reported result in the data set on hypertensive person (six week trial, both drugs) is reported as “equal rates”.
